Patent publication US20230123334A1, “AMINO LIPID COMPOUND, PREPARATION METHOD THEREFOR, AND APPLICATION THEREOF” (SHENZHEN SHENXIN BIOTECHNOLOGY CO., LTD., priority 2020, published 2023)

Columns and labels:
[1] = test system: HEK293 cells; test: Preliminary screening as DNA vectors, GFP transfection of HEK293 cells; format: cell-based; conditions: HEK293 cells; lipid/DOPE liposome with 75 ng plasmid DNA (psin-EGFP-IRES-Puro); number of cells expressing GFP divided by total number of nuclei (Hoechst)
In short: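 Lipid + DOPE liposomes (NaOAc, pH 5.6) complexed w/ 75 ng psin-EGFP-IRES-Puro, 30 min RT; added to 3-5×10^4 HEK293/well, 37° C. Hoechst 0.2 μg/mL at 20-24 h, imaged after further 20-24 h. Efficiency = GFP+ cells / total nuclei.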

[2] = test system: HEK293 cells; test: Preliminary screening as mRNA vectors, EGFP mRNA transfection of HEK293 cells; format: cell-based; conditions: HEK293 cells, 96-well plates, EGFP mRNA 50 ng per well; percentage of GFP fluorescent cells relative to total number of cells (Hoechst)
In short: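 Each well of HEK293 cells received 50 ng of EGFP mRNA. Efficiency was expressed as percent GFP-expressing cells over Hoechst-defined total cell number.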

Structure (SMILES) | Absolute DNA transfection efficiency in HEK293 cells [1] [%] | Absolute mRNA transfection efficiency in HEK293 cells [2] [%]
CCCCCCCCCCCCCNc1nc(NCCCCCC)nc(NCCN(C)C)n1 [Compound N6N13D1] | 0.0 | 0.0
CCCCCCCCCCCCCNc1nc(NCCCCCC)nc(NCCN2CCOCC2)n1 [Compound N6N13D2] | 0.0 | 0.0
CCCCCCCCCCCCCNc1nc(NCCCCCC)nc(NCCN2CCCC2)n1 [Compound N6N13D3] | 0.5 | 1.0
CCCCCCCCCCCCCNc1nc(NCCCCCC)nc(NCCN2CCCCC2)n1 [Compound N6N13D4] | 0.0 | 0.6
CCCCCCCCCCCCCNc1nc(NCCCCCC)nc(NCCN2CCN(C)CC2)n1 [Compound N6N13D5] | 0.0 | 0.0
CCCCCCCCCCCCCNc1nc(NCCCCCC)nc(NCCCN(C)C)n1 [Compound N6N13D6] | 0.1 | 0.1
CCCCCCCCCCCCCNc1nc(NCCCCCC)nc(NCCN(CC)CC)n1 [Compound N6N13D7] | 0.1 | 0.9
CCCCCCCCCCCCCNc1nc(NCCCCCC)nc(NCCCN2CCOCC2)n1 [Compound N6N13D8] | 0.0 | 0.0
CCCCCCCCCCCCCNc1nc(NCCCCCC)nc(NCCCN2CCN(C)CC2)n1 [Compound N6N13D9] | 0.0 | 0.0
CCCCCCCCCCCCCNc1nc(NCCCCCC)nc(NCC2CCN(C)CC2)n1 [Compound N6N13D10] | 0.0 | 0.0
CCCCCCCCCCCCCCCNc1nc(NCCCCCC)nc(NCCN(C)C)n1 [Compound N6N15D1] | 0.0 | 0.0
CCCCCCCCCCCCCCCNc1nc(NCCCCCC)nc(NCCN2CCOCC2)n1 [Compound N6N15D2] | 0.0 | 0.1
CCCCCCCCCCCCCCCNc1nc(NCCCCCC)nc(NCCN2CCCC2)n1 [Compound N6N15D3] | 0.6 | 0.3
CCCCCCCCCCCCCCCNc1nc(NCCCCCC)nc(NCCN2CCCCC2)n1 [Compound N6N15D4] | 0.1 | 0.0
CCCCCCCCCCCCCCCNc1nc(NCCCCCC)nc(NCCN2CCN(C)CC2)n1 [Compound N6N15D5] | 0.0 | 0.0
CCCCCCCCCCCCCCCNc1nc(NCCCCCC)nc(NCCCN(C)C)n1 [Compound N6N15D6] | 0.3 | 0.3
CCCCCCCCCCCCCCCNc1nc(NCCCCCC)nc(NCCN(CC)CC)n1 [Compound N6N15D7] | 0.0 | 0.0
CCCCCCCCCCCCCCCNc1nc(NCCCCCC)nc(NCCCN2CCOCC2)n1 [Compound N6N15D8] | 0.3 | 0.0
CCCCCCCCCCCCCCCNc1nc(NCCCCCC)nc(NCCCN2CCN(C)CC2)n1 [Compound N6N15D9] | 0.1 | 0.0
CCCCCCCCCCCCCCCNc1nc(NCCCCCC)nc(NCC2CCN(C)CC2)n1 [Compound N6N15D10] | 0.2 | 0.7
CCCCCCCCCCCCCCCCNc1nc(NCCCCCC)nc(NCCN(C)C)n1 [Compound N6N16D1] | 0.4 | 0.0
CCCCCCCCCCCCCCCCNc1nc(NCCCCCC)nc(NCCN2CCOCC2)n1 [Compound N6N16D2] | 0.0 | 0.1

Structure (SMILES) | Absolute DNA transfection efficiency in HEK293 cells [1] [%] | Absolute mRNA transfection efficiency in HEK293 cells [2] [%]
CCCCCCCCCCCCCCCCNc1nc(NCCCCCC)nc(NCCN2CCCC2)n1 [Compound N6N16D3] | 0.7 | 2.8
CCCCCCCCCCCCCCCCNc1nc(NCCCCCC)nc(NCCN2CCCCC2)n1 [Compound N6N16D4] | 0.0 | 0.0
CCCCCCCCCCCCCCCCNc1nc(NCCCCCC)nc(NCCN2CCN(C)CC2)n1 [Compound N6N16D5] | 0.0 | 0.1
CCCCCCCCCCCCCCCCNc1nc(NCCCCCC)nc(NCCCN(C)C)n1 [Compound N6N16D6] | 0.2 | 0.4
CCCCCCCCCCCCCCCCNc1nc(NCCCCCC)nc(NCCN(CC)CC)n1 [Compound N6N16D7] | 0.0 | 0.5
CCCCCCCCCCCCCCCCNc1nc(NCCCCCC)nc(NCCCN2CCOCC2)n1 [Compound N6N16D8] | 0.6 | 0.0
CCCCCCCCCCCCCCCCNc1nc(NCCCCCC)nc(NCCCN2CCN(C)CC2)n1 [Compound N6N16D9] | 0.0 | 0.0
CCCCCCCCCCCCCCCCNc1nc(NCCCCCC)nc(NCC2CCN(C)CC2)n1 [Compound N6N16D10] | 0.7 | 0.8
CCCCCCCCCCCCCCCCCCNc1nc(NCCCCCC)nc(NCCN(C)C)n1 [Compound N6N18D1] | 1.1 | 3.9
CCCCCCCCCCCCCCCCCCNc1nc(NCCCCCC)nc(NCCN2CCOCC2)n1 [Compound N6N18D2] | 0.6 | 0.9
CCCCCCCCCCCCCCCCCCNc1nc(NCCCCCC)nc(NCCN2CCCC2)n1 [Compound N6N18D3] | 3.4 | 3.9
CCCCCCCCCCCCCCCCCCNc1nc(NCCCCCC)nc(NCCN2CCCCC2)n1 [Compound N6N18D4] | 2.0 | 0.2
CCCCCCCCCCCCCCCCCCNc1nc(NCCCCCC)nc(NCCN2CCN(C)CC2)n1 [Compound N6N18D5] | 0.6 | 0.0
CCCCCCCCCCCCCCCCCCNc1nc(NCCCCCC)nc(NCCCN(C)C)n1 [Compound N6N18D6] | 1.8 | 0.1
CCCCCCCCCCCCCCCCCCNc1nc(NCCCCCC)nc(NCCN(CC)CC)n1 [Compound N6N18D7] | 0.9 | 0.3
CCCCCCCCCCCCCCCCCCNc1nc(NCCCCCC)nc(NCCCN2CCOCC2)n1 [Compound N6N18D8] | 0.3 | 0.0
CCCCCCCCCCCCCCCCCCNc1nc(NCCCCCC)nc(NCCCN2CCN(C)CC2)n1 [Compound N6N18D9] | 0.1 | 0.2
CCCCCCCCCCCCCCCCCCNc1nc(NCCCCCC)nc(NCC2CCN(C)CC2)n1 [Compound N6N18D10] | 0.4 | 0.1
CCCCCCCNc1nc(NCCCCCCC)nc(NCCN(C)C)n1 [Compound N7N7D1] | 0.0 | 0.0
CCCCCCCNc1nc(NCCCCCCC)nc(NCCN2CCOCC2)n1 [Compound N7N7D2] | 0.0 | 0.0
CCCCCCCNc1nc(NCCCCCCC)nc(NCCN2CCCC2)n1 [Compound N7N7D3] | 0.0 | 0.0
